Molecular target: human activated kallikrein enzyme (Homo sapiens, UniProt P03952)
Assay: Inhibition of human activated plasma kallikrein, fluorogenic PFR-AMC substrate, 500 pM enzyme format
Assay type: biochemical
Conditions: 500 pM activated kallikrein; 300 μM PFR-AMC; 30 min preincubation; 10 min room temperature; pH 7.5; read-out: Primary Dose Response Assay: Average EC50
Outline: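 Using fluorogenic PFR-AMC at 300 μM, cleavage by 500 pM human activated kallikrein ran 10 min at room temperature, read at 460 nm emission (380 nm excitation). Enzyme and compounds were first preincubated 30 min in 20 mM Tris pH 7.5, 150 mM NaCl, 1 mM EDTA, 0.1% PEG-400, 0.1% Triton X-100.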

Chain of human activated kallikrein enzyme (P03952 391-638 limits assumed): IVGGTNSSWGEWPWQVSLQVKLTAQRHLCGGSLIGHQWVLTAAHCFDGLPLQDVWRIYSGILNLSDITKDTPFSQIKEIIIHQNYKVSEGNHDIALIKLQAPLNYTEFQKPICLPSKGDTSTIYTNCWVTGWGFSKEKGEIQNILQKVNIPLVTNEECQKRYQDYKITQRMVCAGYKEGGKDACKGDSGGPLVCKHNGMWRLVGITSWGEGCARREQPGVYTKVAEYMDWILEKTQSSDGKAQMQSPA
Chain of human activated kallikrein enzyme (P03952 20-390 partner limits assumed): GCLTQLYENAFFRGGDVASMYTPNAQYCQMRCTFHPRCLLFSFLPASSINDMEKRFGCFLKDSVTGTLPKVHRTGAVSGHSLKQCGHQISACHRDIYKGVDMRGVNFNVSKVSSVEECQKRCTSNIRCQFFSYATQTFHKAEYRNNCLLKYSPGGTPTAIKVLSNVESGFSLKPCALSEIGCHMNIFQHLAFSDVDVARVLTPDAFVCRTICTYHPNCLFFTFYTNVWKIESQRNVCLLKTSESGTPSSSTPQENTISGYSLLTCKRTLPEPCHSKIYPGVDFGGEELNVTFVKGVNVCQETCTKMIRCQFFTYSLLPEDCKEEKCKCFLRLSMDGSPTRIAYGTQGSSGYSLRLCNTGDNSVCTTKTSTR

| SMILES | EC50 |
| --- | --- |
| Cc1ccc(Cn2cc(C(=O)NCc3c(C)cc4c(N)nccc4c3C)cn2)cc1Cl [Example 96, N-((1-amino-5,7-dimethylisoquinolin-6-yl)methyl)-1-(3-chloro-4-methylbenzyl)-1H-pyrazole-4-carboxamide] | 1 to 10 nM |
| Cc1cc2c(N)nccc2c(C)c1CNC(=O)c1cnn(Cc2cccc(Cl)c2)c1 [Example 98, N-((1-amino-5,7-dimethylisoquinolin-6-yl)methyl)-1-(3-chlorobenzyl)-1H-pyrazole-4-carboxamide] | 10 to 100 nM |
| Cc1cc2nc(Cn3cc(C(=O)NCc4c(C)cc5c(N)nccc5c4C)cn3)cn2cc1C [Example 102, N-((1-amino-5,7-dimethylisoquinolin-6-yl)methyl)-1-((6,7-dimethylimidazo[1,2-a]pyridin-2-yl)methyl)-1H-pyrazole-4-carboxamide] | < 1 nM |
| Cc1ccn2cc(Cn3cc(C(=O)NCc4c(C)cc5c(N)nccc5c4C)cn3)nc2c1 [Example 103, N-((1-amino-5,7-dimethylisoquinolin-6-yl)methyl)-1-((7-methylimidazo[1,2-a]pyridin-2-yl)methyl)-1H-pyrazole-4-carboxamide] | < 1 nM |
| Cc1cc2c(N)nccc2c(C)c1CNC(=O)c1cnn(Cc2cn3c(C)c(C4CC4)ccc3n2)c1 [Example 104, N-((1-amino-5,7-dimethylisoquinolin-6-yl)methyl)-1-((6-cyclopropyl-5-methylimidazo[1,2-a]pyridin-2-yl)methyl)-1H-pyrazole-4-carboxamide] | < 1 nM |
| Cc1cc2c(N)nccc2c(C)c1CNC(=O)c1cnn(Cc2cn3c(C)cccc3n2)c1 [Example 105, N-((1-amino-5,7-dimethylisoquinolin-6-yl)methyl)-1-((5-methylimidazo[1,2-a]pyridin-2-yl)methyl)-1H-pyrazole-4-carboxamide] | < 1 nM |
| Cc1cc2c(N)nccc2c(C)c1CNC(=O)c1cnn(Cc2cn3c(C)c(Cl)ccc3n2)c1 [Example 106, N-((1-amino-5,7-dimethylisoquinolin-6-yl)methyl)-1-((6-chloro-5-methylimidazo[1,2-a]pyridin-2-yl)methyl)-1H-pyrazole-4-carboxamide] | < 1 nM |
| COc1ccc2cc(Cn3cc(C(=O)NCc4c(C)cc5c(N)nccc5c4C)cn3)c(Cl)nc2c1 [Example 108, N-((1-amino-5,7-dimethylisoquinolin-6-yl)methyl)-1-((2-chloro-7-methoxyquinolin-3-yl)methyl)-1H-pyrazole-4-carboxamide] | < 1 nM |
| COc1ccc2nc(Cl)c(Cn3cc(C(=O)NCc4c(C)cc5c(N)nccc5c4C)cn3)cc2c1 [Example 109, N-((1-amino-5,7-dimethylisoquinolin-6-yl)methyl)-1-((2-chloro-6-methoxyquinolin-3-yl)methyl)-1H-pyrazole-4-carboxamide] | 1 to 10 nM |
| COc1ccc2cc(Cn3cc(C(=O)NCc4c(C)cc5c(N)nccc5c4C)cn3)cnc2c1 [Example 111, N-((1-amino-5,7-dimethylisoquinolin-6-yl)methyl)-1-((7-methoxyquinolin-3-yl)methyl)-1H-pyrazole-4-carboxamide] | < 1 nM |
| COc1c(F)cccc1Cc1ccc(Cn2cc(C(=O)NCc3c(C)cc4c(N)nccc4c3C)cn2)cc1 [Example 116, N-((1-amino-5,7-dimethylisoquinolin-6-yl)methyl)-1-(4-(3-fluoro-2-methoxybenzyl)benzyl)-1H-pyrazole-4-carboxamide] | 1 to 10 nM |
| Cc1cc2c(N)nccc2c(C)c1CNC(=O)c1cnn(Cc2ccc(Cc3nncn3C)cc2)c1 [Example 117, N-((1-amino-5,7-dimethylisoquinolin-6-yl)methyl)-1-(4-((4-methyl-4H-1,2,4-triazol-3-yl)methyl)benzyl)-1H-pyrazole-4-carboxamide] | 1 to 10 nM |
| Cc1cc2c(N)nccc2c(C)c1CNC(=O)c1cnn(C(C)c2ccc3ncc(Cl)cc3c2)c1 (stereo not drawn) [Example 120, N-((1-amino-5,7-dimethylisoquinolin-6-yl)methyl)-1-(1-(3-chloroquinolin-6-yl)ethyl)-1H-pyrazole-4-carboxamide] | < 1 nM |

Results, then the compound that gave them:

| EC50 | SMILES |
| --- | --- |
| 10 to 100 nM | Cc1cc2c(N)nccc2c(C)c1CNC(=O)c1cnn(Cc2cc(C(F)(F)F)cc(C(F)(F)F)c2)c1 [Example 95, N-((1-amino-5,7-dimethylisoquinolin-6-yl)methyl)-1-(3,5-bis(trifluoromethyl)benzyl)-1H-pyrazole-4-carboxamide] |
| 10 to 100 nM | Cc1cc2c(N)nccc2c(C)c1CNC(=O)c1cnn(Cc2cccc(C(F)(F)F)c2)c1 [Example 97, N-((1-amino-5,7-dimethylisoquinolin-6-yl)methyl)-1-(3-(trifluoromethyl)benzyl)-1H-pyrazole-4-carboxamide] |
| < 1 nM | Cc1cc2c(N)nccc2c(C)c1CNC(=O)c1cnn(Cc2cn3cc(C4CC4)ccc3n2)c1 [Example 99, N-((1-amino-5,7-dimethylisoquinolin-6-yl)methyl)-1-((6-cyclopropylimidazo[1,2-a]pyridin-2-yl)methyl)-1H-pyrazole-4-carboxamide] |
| < 1 nM | Cc1cc2c(N)nccc2c(C)c1CNC(=O)c1cnn(Cc2cn3ccc(C4CC4)cc3n2)c1 [Example 100, N-((1-amino-5,7-dimethylisoquinolin-6-yl)methyl)-1-((7-cyclopropylimidazo[1,2-a]pyridin-2-yl)methyl)-1H-pyrazole-4-carboxamide] |
| 1 to 10 nM | Cc1cc2c(N)nccc2c(C)c1CNC(=O)c1cnn(Cc2ccc3ccc(Cl)cc3n2)c1 [Example 107, N-((1-amino-5,7-dimethylisoquinolin-6-yl)methyl)-1-((7-chloroquinolin-2-yl)methyl)-1H-pyrazole-4-carboxamide] |
| 1 to 10 nM | COc1ccc2cc(Cn3cc(C(=O)NCc4c(C)cc5c(N)nccc5c4C)cn3)cnc2c1 [Example 110, N-((1-amino-5,7-dimethylisoquinolin-6-yl)methyl)-1-((7-methoxyquinolin-3-yl)methyl)-1H-pyrazole-4-carboxamide] |
| < 1 nM | Cc1cc2c(N)nccc2c(C)c1CNC(=O)c1cnn(Cc2ccc3c(-n4cccn4)cccc3c2)c1 [Example 112, 1-((5-(1H-pyrazol-1-yl)naphthalen-2-yl)methyl)-N-((1-amino-5,7-dimethylisoquinolin-6-yl)methyl)-1H-pyrazole-4-carboxamide] |
| 1 to 10 nM | Cc1cc2c(N)nccc2c(C)c1CNC(=O)c1cnn(Cc2ccc3c(Br)cccc3c2)c1 [Example 113, N-((1-amino-5,7-dimethylisoquinolin-6-yl)methyl)-1-((5-bromonaphthalen-2-yl)methyl)-1H-pyrazole-4-carboxamide] |
| < 1 nM | Cc1cc2c(N)nccc2c(C)c1CNC(=O)c1cnn(Cc2ccc3c(-c4ccccn4)cccc3c2)c1 [Example 114, N-((1-amino-5,7-dimethylisoquinolin-6-yl)methyl)-1-((5-(pyridin-2-yl)naphthalen-2-yl)methyl)-1H-pyrazole-4-carboxamide] |
| 100 to 1000 nM | Cc1cc2c(N)nccc2c(C)c1CNC(=O)c1cnn(Cc2ccccc2C2CC2)c1 [Example 118, N-((1-amino-5,7-dimethylisoquinolin-6-yl)methyl)-1-(2-cyclopropylbenzyl)-1H-pyrazole-4-carboxamide] |
| < 1 nM | Cc1cc2c(N)nccc2c(C)c1CNC(=O)c1cnn(Cc2ccc(C(C)C(=O)N(C)C)cc2)c1 (stereo not drawn) [Example 119, N-((1-amino-5,7-dimethylisoquinolin-6-yl)methyl)-1-(4-(1-(dimethylamino)-1-oxopropan-2-yl)benzyl)-1H-pyrazole-4-carboxamide] |
